Results as given in US8765422B2, “D4 desaturases and D5 elongases” (priority 2007, dated 2014).
Values joined by “and” are separate entries in the source; they are usually repeats but may differ in a detail not shown here. Equal entries are not always repeated.

Legend:
[1] = test system: Δ5-elongase from Thraustochytrium ONC-T18; assay: Δ5-elongase (clone pYElo) expressed in Saccharomyces cerevisiae INVSc1, fed free fatty acid substrate, percent conversion by FAME GC; assay type: cell-based, Thraustochytrium sp. ONC-T18; conditions: pYElo in yeast
Protocol: The activity and specificity of the D4-desaturase and D5 elongase were determined using the yeast expression system. The transformed yeast was grown in SC-U medium containing 2% glucose, 1% Tergitol NP-40 for 48 hrs, 150 RPM at 30° C. A substrate medium was prepared containing SC-U, 2% galactose, 1% raffinose, 1% Tergitol NP-40 and 500 μM specific free fatty acid. The transformed yeast culture was inoculated into 100 ml substrate medium at an OD600 of 0.5 and cultures incubated at 20° C. for 5 days. The biomass was recovered by centrifugation at 2000 RPM for 5 min, washed once with 100 mM phosphate buffer (pH 7.0), then freeze dried. Fatty acid methyl ester gas chromatography was subsequently carried out to determine the efficiency of fatty acid desaturation and elongation. The percent conversion of the substrate was determined by calculating (product)/(substrate+product)*100. […]
The negative control strain was INVSc1 containing the unaltered pYES2 vector, and these were grown simultaneously. […] The FAMEs were resuspended in iso-octane and analysed by GC-FID. The percent conversion was calculated by dividing the product produced by the sum of (the product produced+the substrate added) and then multiplying by 100. […]

[2] = test system: Δ4-desaturase from Thraustochytrium ONC-T18; assay: Δ4-desaturase (clone pYDes) expressed in Saccharomyces cerevisiae INVSc1, fed free fatty acid substrate, percent conversion by FAME GC; assay type: cell-based, Thraustochytrium sp. ONC-T18; conditions: for % conversion average, vector pYDes: pYDes in INVSc1, 500 μM substrate, GC-FID of FAMEs; for % conversion average, vector pYDes / % conversion With 0.01% ferric citrate: 96 hours at 20° C.; for increase With 0.01% ferric citrate: conversion with 0.01% ferric citrate versus without; for % conversion average (substrate to product) / % conversion With 0.01% ferric citrate: pYDes in yeast; for % conversion average (substrate to product): 500 μM free fatty acid substrate, 20° C., (product)/(substrate+product)*100; for % conversion With 0.01% ferric citrate: 500 μM substrate
Protocol: The activity and specificity of the D4-desaturase and D5 elongase were determined using the yeast expression system. The transformed yeast was grown in SC-U medium containing 2% glucose, 1% Tergitol NP-40 for 48 hrs, 150 RPM at 30° C. A substrate medium was prepared containing SC-U, 2% galactose, 1% raffinose, 1% Tergitol NP-40 and 500 μM specific free fatty acid. The transformed yeast culture was inoculated into 100 ml substrate medium at an OD600 of 0.5 and cultures incubated at 20° C. for 5 days. The biomass was recovered by centrifugation at 2000 RPM for 5 min, washed once with 100 mM phosphate buffer (pH 7.0), then freeze dried. Fatty acid methyl ester gas chromatography was subsequently carried out to determine the efficiency of fatty acid desaturation and elongation. The percent conversion of the substrate was determined by calculating (product)/(substrate+product)*100.
Clone pYDes, which consisted of the full length Δ4-desaturase cloned into pYES2 (Invitrogen, Carlsbad, Calif.), and clone pYElo, which consisted of the full-length Δ5-elongase gene in pYES2, were transformed into competent Saccharomyces cerevisiae INVSc1. Yeast transformation was carried out using the S. c. EasyComp Transformation kit (Invitrogen, Carlsbad, Calif.) according to conditions specified by the manufacturer. Transformants were selected for uracil auxotrophy on media lacking uracil (SC-Ura). To detect the specific desaturase activity of these clones, transformants were grown in the presence of 500 μM specific fatty acid substrates as listed below: A) Docosapentaenoic acid (22:5n-3) (conversion to docosahexaenoic acid would indicate Δ4-desaturase activity), B) Docosatetraenoic acid (22:4n-6) (conversion to docosapentaenoic acid (22:5n-6) would indicate Δ4-desaturase activity), C) Dihomo-gamma-linolenic acid (20:3n-6) (conversion to arachidonic acid (20:4n-6) would indicate Δ5-desaturase activity), D) Eicosapentaenoic acid (20:5n-3) (conversion to docosapentaenoic acid (22:5n-3) would indicate Δ5-elongase activity), E) Arachidonic acid (20:4n-6) (conversion to docosatetraenoic acid (22:4n-6) would indicate Δ5-elongase activity)
The negative control strain was INVSc1 containing the unaltered pYES2 vector, and these were grown simultaneously. The cultures were vigorously agitated (150 rpm) and grown for 96 hours at 20° C. in the presence of 500 μM (final concentration) of the various substrates. The cells were pelleted and washed in 100 mM phosphate buffer, pH 7.0, cell pellets were freeze dried. The lipids were then extracted and derivitized to fatty acid methyl esters (FAME) for gas chromatography analysis (GC). Transesterification and extraction was done using 100 mg freeze dried cells, with C19:0 as internal standard, added transesterification reaction mix (methanol: hydrochloric acid: chloroform, 10:1:1) mixed and heated at 90° C. for 2 hours, then allowed to cool at room temperature. FAMEs were extracted by adding 1 ml water, and 2 ml hexane: chloroform (4:1), and allow organic and aqueous phases to separate. The organic layer was extracted and treated with 0.5 g of anhydrous sodium sulfate to remove particulates and residual water. The organic solvents were evaporated under a stream of argon. The FAMEs were resuspended in iso-octane and analysed by GC-FID. The percent conversion was calculated by dividing the product produced by the sum of (the product produced+the substrate added) and then multiplying by 100.
Clone pYDes, which consisted of the full length Δ4-desaturase cloned into pYES2 (Invitrogen, Carlsbad, Calif.), was transformed into competent Saccharomyces cerevisiae INVSc1. The negative control strain was INVSc1 containing the unaltered pYES2 vector, and these were grown simultaneously.

Structure (SMILES) | conversion of substrate by pYElo [1] | % conversion average, vector pYDes [2] | increase With 0.01% ferric citrate [2] | % conversion average (substrate to product) [2] | % conversion With 0.01% ferric citrate [2] | also measured
CCCCC/C=C\C/C=C\C/C=C\C/C=C\CCCC(=O)O [ARA, Arachidonic acid (20:4n-6)] | minimal conversion |  |  |  |  | 
CC/C=C\C/C=C\C/C=C\C/C=C\C/C=C\CCCC(=O)O [EPA, Eicosapentaenoic acid (20:5n-3)] | minimal conversion |  |  |  |  | 
CCCCC/C=C\C/C=C\C/C=C\CCCCCCC(=O)O [DGLA, Dihomo-gamma-linolenic acid (20:3n-6)] |  | 0.87% |  |  |  | 
CCCCC/C=C\C/C=C\C/C=C\C/C=C\CCCCCC(=O)O [DTA, Docosatetraenoic acid (22:4n-6)] |  | 14% | 2.43 fold | 14% and 13.76% | 33.43% | % conversion average, vector pYDes ([2]; listed as C22:4 n-6): 13.76%
CC/C=C\C/C=C\C/C=C\C/C=C\C/C=C\CCCCCC(=O)O [DPA, Docosapentaenoic acid (22:5n-3)] |  | 14% | 2.75 fold | 14.04% | 38.70% | % conversion average, vector pYDes ([2]; listed as C22:5 n-3): 14.04%; % conversion average (substrate to product) ([2]; listed as DPA n-3): 14%; DPA to DHA conversion on addition of ferric citrate to the media ([2]; pYDes, trace metal ferric citrate added): increase
